This is an account of results in publication PMC7982595 (Frontiers in Pharmacology, 2021).

Series [1] is described as follows: Determination of solubility in different solvents (shaken 24 h, HPLC). The format is physicochemical. The settings on record: 25 °C, thermodynamic from solid, mean ± SD. On the procedure:
Then they were shaken for 24 h with 100 rpm at 25°C. At last, the supernatant was directly injected into HPLC after high speed centrifugation (3,000 rpm for 10 min).

Series [2] in a line: In vivo drug release / pharmacokinetics, plasma galantamine by HPLC-ESI-MS/MS. On the set-up: species or system Sprague-Dawley (SD) rats; AUC0-t / AUC0-∞: unit not given here. To be noted: 24 mg/kg. As for the experimental part:
Healthy Sprague-Dawley (SD) rats weighing 200–210 g were supplied by the Experimental Animal Breeding Center of Jinan Pengyue Co., Ltd. (Jinan, China). Before the drug administration, all rats were fasted for 12 h. But they were free access to diet and water throughout the study ([Zhang et al., 2019]). This study conformed to the Guide for the Care and Use of Laboratory Animals.
The study groups were carried out with twelve rats, which were randomly divided into two groups each with six rats. […] The blood samples of both groups were obtained via the orbital venous plexus and collected into heparinized tubes before and after dosing at 1 h, 3 h, 6 h, 12 h, 1 day, 2 days, 3 days, 4 days, 6 days, 8 days, 10 days, 12 days, […], 16 days, 18 days, 20 days. Other eighteen rats were randomly divided into the placebo group, negative group and oral administration group of six rats each. The placebo group received […] microspheres suspension in diluent at a single dose of 20 mg/kg by i.m., and the blood samples of this group were obtained the same as group I. The negative group was also carried out without any treatment, and the blood samples of this group were obtained the same as group I. The oral administration group was performed with GLT-PM (24 mg/kg), which was infused to stomach of rats. The blood samples of oral administration group were obtained before and after dosing at 15 min, 30 min, 45 min, 1 h, 1.5 h, 2 h, 3 h, 4 h, 6 h, 8 h, 12 h, 24 h, 48 h, 72 h. All blood samples were centrifuged immediately at 4,500 rpm for 10 min, and the plasma samples were separated into EP tubes and stored at −80°C until analysis ([Jiang et al., 2014]; [Zhang et al., 2019]).
After thawing at room temperature, 50 μL plasma samples were separately added into a […] centrifuge tube with the addition of 150 μL of acetonitrile. This mixture was vortex mixed for 1 min and centrifuged at 12700 rpm for 10 min. Then 100 μL supernate was mixed with 100 μL deionized water, and they was injected into vials for analysis ([Zhang et al., 2019]).
AB Sciex QTrap 6,500 + triple-quadrupole tandem mass spectrometer (Applied Biosystem Inc., Foster City, Calif, United States) was connected to Waters Acquity UPLC H-Class HPLC system (Waters Inc., Milford, Massachusetts, United States) via electro-spray ionization (ESI) interface. LC separation was performed on a Waters BEH C8 column (2.1 × 50 mm I.D., 1.7 μm) with mobile phase A (1 mmol/L ammonium acetate solution) and phase B (mixture of acetonitrile and methanol, 4:1, v/v) at 40°C, which was used with gradient elution as shown in Table 2 ([Suresha et al., 2014]). Quantitative analyses were performed in positive ion mode on a 6500 Q-trap mass analyzer (AB Sciex, Framingham, MA) coupled with electrospray ion source. Multiple reaction monitoring (MRM) mode was used for the quantification with ion spray voltage set at 5500 V, curtain gas 35 psi, […], and the interface heater temperature 450°C. […]
The plasma concentration-time data were analyzed with non-compartmental model by Phoenix WinNonlin 8.1 software (Pharsight Corporation, United States) to obtain the pharmacokinetic parameters, which included the area under the plasma concentration-time curve (AUC), half-life (T1/2) and mean residence time (MRT). The maximum plasma drug concentration (Cmax) and the time required to reach Cmax (Tmax) were directly read from the plasma concentration-time data.

For series [3] the following is noted: 25°C; ref Marco-Contelles et al., 2005; Saigal et al., 2013; cited from earlier work.
Where [4] appears, read: n = 3, read-out: Solubility, benzyl alcohol.
Where [5] appears, read: n = 3, read-out: Solubility, deionized water.
The mark [6] stands for this setting: n = 3, read-out: Solubility, dichloromethane.
Setting [7] is: n = 3, read-out: Solubility, methanol.
The mark [8] stands for this setting: Oral administration: rats, plasma galantamine.
[9] abbreviates: Sprague-Dawley, rat, plasma, po.

Structures can show the parent of a compound that is named as a salt. Where two headings read alike, the source gives them in different places.

Broadly, the solubility is how much of the substance goes into solution per volume. Broadly, the Cmax is the highest concentration seen after dosing. As usually defined, the Tmax is the time from dosing to the highest level. One may read the half-life as how long it takes for the measured level to halve. For the compound `COc1ccc2c3c1O[C@H]1C[C@@H](O)C=C[C@@]31CCN(C)C2.COc1ccc2c3c1O[C@H]1C[C@@H](O)C=C[C@@]31CCN(C)C2.O=C(O)c1cc2ccccc2c(Cc2c(O)c(C(=O)O)cc3ccccc23)c1O` [GLT-PM, galantamine pamoate], in series [1] (setting [4]), the solubility at 24 h was found to be 357300 ± 210 µg/mL. In series [1] (setting [5]), the solubility at 24 h amounted to 200 ± 20 µg/mL. In addition, the solubility at 24 h in series [1] (setting [6]) is 8720 ± 520 µg/mL. In series [1] (setting [7]), the solubility at 24 h is 1010 ± 210 µg/mL. In series [2] (setting [8]), the AUC0-t is given as 532.54 ± 73.08 and the “AUC0-∞” value was 532.91 ± 72.92. In series [2] (setting [9]), the peak level (Cmax) was 119 ± 44.6 ng/mL, the Tmax was 0.96 h and the half-life is 4.32 h.

Usually Solubility stands for how much of the substance goes into solution per volume. On to `COc1ccc2c3c1O[C@H]1C[C@@H](O)C=C[C@@]31CCN(C)C2` [Galantamine hydrobromide, reference compound], for which the solubility at 24 h is 1570 ± 190 µg/mL in series [1] (setting [4]), 4320 ± 370 µg/mL in series [1] (setting [5]), 320 ± 30 µg/mL in series [1] (setting [6]) and 820 ± 90 µg/mL in series [1] (setting [7]). The Solubility in series [3] was 5170 µg/mL.
